Assay results taken from publication PMC9980655 (Journal of medicinal chemistry, 2022).

Experiments:
[1] = In vitro metabolic stability in CES1−/− mouse liver homogenate; format: in vitro ADME; details: C57BL/6, mouse
[2] = In vitro metabolic stability in CES1−/− mouse brain homogenate; format: in vitro ADME; details: for remaining at 1 h, 10 μM: C57BL/6, mouse; for Stability in mouse (% remaining at 1 h) Brain: 10 μM, 37 °C, mean ± std error, n = 3
[3] = In vitro metabolic stability in CES1−/− mouse plasma; format: in vitro ADME; details: C57BL/6, mouse
[4] = rats, dose dependent; cited from earlier work
[5] = Time-dependent oral PK in CES1−/− mice; format: in vivo, mouse; details: PO 10 mg/kg DPTIP equivalent
nSMase2 = target: T1, nSMase2 (Mus musculus, UniProt Q9JJY3); assay: nSMase2 activity in striata of IL-1β-injected mice; format: in vivo; details: PO 3 and 10 mg/kg DPTIP equivalent, dose dependent, 4 h post IL-1β
T1 sequence (Q9JJY3 1-655): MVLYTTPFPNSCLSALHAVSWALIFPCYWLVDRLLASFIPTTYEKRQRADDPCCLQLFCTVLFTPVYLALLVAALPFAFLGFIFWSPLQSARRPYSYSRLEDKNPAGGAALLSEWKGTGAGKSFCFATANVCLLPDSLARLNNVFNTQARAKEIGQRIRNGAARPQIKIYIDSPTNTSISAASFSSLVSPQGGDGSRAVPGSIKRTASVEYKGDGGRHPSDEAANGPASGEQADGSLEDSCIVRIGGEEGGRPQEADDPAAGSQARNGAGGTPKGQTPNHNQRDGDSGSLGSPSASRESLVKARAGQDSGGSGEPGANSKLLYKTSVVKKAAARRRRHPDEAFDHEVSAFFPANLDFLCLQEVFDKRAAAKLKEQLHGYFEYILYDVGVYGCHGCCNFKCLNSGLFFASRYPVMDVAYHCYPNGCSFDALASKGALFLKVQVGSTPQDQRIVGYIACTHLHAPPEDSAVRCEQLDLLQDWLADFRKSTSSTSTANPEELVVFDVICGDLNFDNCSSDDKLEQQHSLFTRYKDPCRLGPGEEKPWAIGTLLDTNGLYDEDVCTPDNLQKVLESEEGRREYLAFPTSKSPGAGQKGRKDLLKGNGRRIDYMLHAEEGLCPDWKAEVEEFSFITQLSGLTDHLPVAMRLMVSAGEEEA

Single time-point = format: in vivo, mouse; details: CES1−/− mice, PO 10 mg/kg DPTIP equivalent, 2 h post dose
[6] = format: in vivo, mouse; details: high resolution mass spectrometry, after oral dosing

Structure (SMILES): COc1cc(-c2nc(-c3ccccc3)c(-c3cccs3)[nH]2)cc(OC)c1OC(=O)C(C)(C)C [Compound P4, 2,6-Dimethoxy-4-(4-phenyl-5-(thiophen-2-yl)-1H-imidazol-2-yl)phenyl pivalate]
- remaining at 1 h, 10 μM ([1]; CES1−/− mouse liver homogenate): < 25%
- remaining at 1 h, 10 μM ([2]; CES1−/− mouse brain homogenate): > 75%
- remaining at 1 h, 10 μM ([3]; CES1−/− mouse plasma): < 30%

Structure (SMILES): COc1cc(-c2nc(-c3ccccc3)c(-c3cccs3)[nH]2)cc(OC)c1OC(=O)N1C2CCC1CC(N1CCCCC1)C2 (centres unmarked) [Compound P13, 2,6-Dimethoxy-4-(5-phenyl-4-(thiophen-2-yl)-1H-imidazol-2-yl)phenyl 3-(piperidin-1-yl)-8-azabicyclo[3.2.1]octane-8-carboxylate]
- remaining at 1 h, 10 μM ([1]; tissue homogenate): > 75%

Structure (SMILES): CC(C)c1cccc(C(C)C)c1OCOP(=O)(O)O [fospropofol]
- Improvement of oral bioavailability [4]: 20–70%

Structure (SMILES): COc1cc(-c2nc(-c3ccccc3)c(-c3cccs3)[nH]2)cc(OC)c1OC(=O)N1C2CCCC1CC2 [Compound P12, 2,6-Dimethoxy-4-(5-phenyl-4-(thiophen-2-yl)-1H-imidazol-2-yl)phenyl 8-azabicyclo[3.2.1]octane-8-carboxylate]
- remaining at 1 h, 10 μM ([1]; tissue homogenate): > 75%

Structure (SMILES): COc1cc(-c2nc(-c3ccccc3)c(-c3cccs3)[nH]2)cc(OC)c1OC(=O)N1CCC(N2CCCCC2)CC1 [Compound P1, 2,6-Dimethoxy-4-(4-phenyl-5-(thiophen-2-yl)-1H-imidazol-2-yl)phenyl [1,4’-bipiperidine]-1’-carboxylate]
- remaining at 1 h, 10 μM ([1]; tissue homogenate): > 75%
- remaining at 1 h, 10 μM ([2]; brain homogenate): ≥ 50%
- remaining at 1 h, 10 μM ([3]; plasma): > 75%
- AUC0-t of intact prodrug in brain [5]: 494.6 pmol·h/g

Structure (SMILES): COc1cc(-c2nc(-c3ccccc3)c(-c3cccs3)[nH]2)cc(OC)c1OC(=O)OC(OC(=O)C(C)(C)C)c1ccccc1 (centres unmarked) [Compound P6, (((2,6-Dimethoxy-4-(4-phenyl-5-(thiophen-2-yl)-1H-imidazol-2-yl)phenoxy)carbonyl)oxy)(phenyl)methyl pivalate]
- remaining at 1 h, 10 μM ([1]; CES1−/− mouse liver homogenate): > 75%
- remaining at 1 h, 10 μM ([2]; CES1−/− mouse brain homogenate): ≥ 50%
- remaining at 1 h, 10 μM ([3]; CES1−/− mouse plasma): > 75%

Structure (SMILES): COc1cc(-c2nc(-c3ccccc3)c(-c3cccs3)[nH]2)cc(OC)c1OCOP(=O)(O)O [Compound P15, (2,6-Dimethoxy-4-(4-phenyl-5-(thiophen-2-yl)-1H-imidazol-2-yl)phenoxy) methyl dihydrogen phosphate]
- remaining at 1 h, 10 μM ([1]; CES1−/− mouse liver homogenate): < 25%
- Stability in mouse (% remaining at 1 h) Brain ([2]; CES1−/− mouse brain homogenate): completely metabolized

Structure (SMILES): CCC1CC(N2CCCCC2)CC(CC)N1C(=O)Oc1c(OC)cc(-c2nc(-c3ccccc3)c(-c3cccs3)[nH]2)cc1OC (centres unmarked) [Compound P18, 2,6-Dimethoxy-4-(5-phenyl-4-(thiophen-2-yl)-1H-imidazol-2-yl)phenyl 2’,6’-diethyl-[1,4’-bipiperidine]-1’-carboxylate]
- remaining at 1 h, 10 μM ([1]; tissue homogenate): > 75%
- Effect on heightened nSMase2 activity in striata caused by IL-1β (nSMase2): normalized
- remaining at 1 h, 10 μM ([2]; brain homogenate): > 75%
- remaining at 1 h, 10 μM ([3]; plasma): > 75%
- AUC0-t of intact prodrug in brain [5]: 179 pmol·h/g

Structure (SMILES): CCCCCC(=O)Oc1c(OC)cc(-c2nc(-c3ccccc3)c(-c3cccs3)[nH]2)cc1OC [Compound P2, 2,6-Dimethoxy-4-(4-phenyl-5-(thiophen-2-yl)-1H-imidazol-2-yl)phenyl hexanoate]
- remaining at 1 h, 10 μM ([1]; CES1−/− mouse liver homogenate): < 25%
- remaining at 1 h, 10 μM ([2]; CES1−/− mouse brain homogenate): ≥ 50%
- remaining at 1 h, 10 μM ([3]; CES1−/− mouse plasma): < 30%

Structure (SMILES): COc1cc(-c2nc(-c3ccccc3)c(-c3cccs3)[nH]2)cc(OC)c1OC(C)=O [Compound P3, 2,6-Dimethoxy-4-(4-phenyl-5-(thiophen-2-yl)-1H-imidazol-2-yl)phenyl acetate]
- remaining at 1 h, 10 μM ([1]; CES1−/− mouse liver homogenate): < 25%
- Stability in mouse (% remaining at 1 h) Brain ([2]; CES1−/− mouse brain homogenate): completely metabolized
- remaining at 1 h, 10 μM ([3]; CES1−/− mouse plasma): < 30%

Structure (SMILES): COc1cc(-c2nc(-c3ccccc3)c(-c3cccs3)[nH]2)cc(OC)c1OC(=O)C1=CN(C)C=CC1 [Compound P17, 2,6-Dimethoxy-4-(4-phenyl-5-(thiophen-2-yl)-1H-imidazol-2-yl)phenyl 1-methyl-1,4-dihydropyridine-3-carboxylate]
- Brain level of intact prodrug (Single time-point): 3.0 nM
- Plasma level of intact prodrug (Single time-point): 3.9 nM
- Putative oxidized pyridinium metabolite in brain and plasma [6]: negligible quantities

Structure (SMILES): COc1cc(-c2nc(-c3ccccc3)c(-c3cccs3)[nH]2)cc(OC)c1OCOP(=O)(O)OCOC(=O)OC(C)C [Compound P16, ((((2,6-Dimethoxy-4-(4-phenyl-5-(thiophen-2-yl)-1H-imidazol-2-yl)phenoxy)methoxy)(hydroxy)phosphoryl)oxy)methyl isopropyl carbonate]
- remaining at 1 h, 10 μM ([1]; CES1−/− mouse liver homogenate): < 25%
- remaining at 1 h, 10 μM ([2]; CES1−/− mouse brain homogenate): > 75%

Structure (SMILES): CCC1CCCC(CC)N1C(=O)Oc1c(OC)cc(-c2nc(-c3ccccc3)c(-c3cccs3)[nH]2)cc1OC (centres unmarked) [Compound P10, 2,6-Dimethoxy-4-(5-phenyl-4-(thiophen-2-yl)-1H-imidazol-2-yl)phenyl 2,6-diethylpiperidine-1-carboxylate]
- remaining at 1 h, 10 μM ([1]; CES1−/− mouse liver homogenate): > 50%

Structure (SMILES): COc1cc(-c2nc(-c3ccccc3)c(-c3cccs3)[nH]2)cc(OC)c1OC(=O)N(C)C [Compound P5, 2,6-Dimethoxy-4-(4-phenyl-5-(thiophen-2-yl)-1H-imidazol-2-yl)phenyl dimethylcarbamate]
- remaining at 1 h, 10 μM ([1]; tissue homogenate): > 75%
- remaining at 1 h, 10 μM ([2]; brain homogenate): > 75%
- remaining at 1 h, 10 μM ([3]; plasma): > 75%
